In general, EC50 refers to the concentration needed to bring the measured effect to its halfway point. One may read the Cmax as the highest concentration seen after dosing. For orientation: Tmax means the time from dosing to the highest level. One may read the inhibition as the change of the read-out against control, counted positive when it falls.

Where two headings read alike, the source gives them in different places.

For series [1], the system named is bloodstream form of T. brucei strain Lister 427. The series is described as follows: T. b. brucei 427 growth inhibition assay (LILiT, Alamar Blue). As to conditions: Trypanosoma brucei. Type of series: cell-based. As for the experimental part: The ‘in vitro’ parasite killing assay used the BSF of the non-human pathogenic subspecies T. b. brucei, strain Lister 427, cultured in HMI-9 medium containing 10% foetal bovine serum. A second cell line, T. b. brucei GVR35-Luc2 which constitutively expresses firefly luciferase was grown in Modified HMI-9 plus 20% foetal calf serum supplemented with 20% Serum Plus (Sigma) and 0.15 μg mL^−1 puromycin. Both strains of trypanosomes were cultured in T-25 vented cap flasks at 37 °C and 5% CO2.
The ‘in vitro’ parasite killing assay used the bloodstream-form of the non-human pathogenic subspecies T. b. brucei, strain Lister 427 (a gift from Professor Keith Matthews) which was cultured in HMI-9 medium containing 10% fetal bovine serum (FBS). A second cell line, T. b. brucei GVR35-Luc2 which constitutively expresses firefly luciferase (5) was grown in Modified HMI-9 plus 20% fetal calf serum (FCS) supplemented with 20% Serum Plus (Sigma) and 0.15 μg/ml puromycin as described previously (5). Both strains of trypanosomes were cultured in T-25 vented cap flasks at 37 °C and 5% CO2.
Growth inhibition tests of bloodstream-form T. b. brucei Lister 427 were carried out using the LILiT (long incubation low inoculation test) method (6). The parasites were cultured in complete HMI-9 medium containing 10% FBS in 96-well plates (Greiner Inc.) with approximately 2500 trypanosomes per well. A 3-fold dilution series (in the range from 45 µM – 0.020 µM) of the inhibitor compounds were prepared in the plate; the maximal concentration of DMSO was 0.45%. After 72 hours of incubation at 37 °C and 5% CO2, 50 µl Alamar Blue (0.2% diluted with Dulbecco’s-phosphate buffered saline (D-PBS, Sigma) was added to each well and plates were incubated at 37 °C and 5% CO2 for 4 hours. Fluorescence was read on the BMG multiplate reader using an excitation wavelength of 530 nm and an emission wavelength of 590 nm.

Series [2] can be described thus: Plasma protein binding, mouse plasma. Type of series: in vitro ADME. As for the experimental part:
(§1) A HepG2 cytotoxicity assay was used to determine a cellular selectivity index. HepG2 cells were seeded into 96-well plates in EMEM medium. Compounds were assessed for their effect upon cellular viability (Supplementary Methods 5.1). Inhibition of CYP450 was determined using kits from BD Biosciences (Supplementary Methods 5.2). Metabolic stability was determined using mouse […] tested at a single concentration of 5 µM. Plasma protein binding was determined using mouse and human plasma at a single concentration of 10 µM (Supplementary Methods 5.4). All PK studies in mice were carried out by Pharmidex (Supplementary Methods 6.1).
Compounds were tested for protein binding using mouse and human plasma at a single concentration of 10 µM and measured by equilibrium dialysis between plasma and buffer. The amount of parent was determined on both sides of the membrane after incubating for 4 hours at 37 °C. The samples were crashed with acetonitrile and put through protein precipitation plates. The eluent was analysed by LC/MS or LC/MS/MS. Output was percentage bound.

Series [3] in a line: Metabolic stability, mouse liver microsomes. To be noted: read-out: MLM Clint. Type of series: in vitro ADME. As to the method: as §1
Compounds were tested for their metabolic stability using mouse and human liver microsomes (MLM and HLM). The compounds were tested at a single concentration of 5 µM. The samples were crashed with acetonitrile and put through protein precipitation plates. The eluent was analysed by LC/MS or LC/MS/MS.
A general note: Liver microsomes are a subcellular fraction often used to study metabolism.

Series [4] in a line: Mouse brain tissue binding. To be noted: read-out: Mouse brain tissue binding fu (%). Type of series: in vitro ADME.
Series [5] is described as follows: Pharmacokinetic studies in mice (IV and PO). Type of series: in vivo, female CD-1 mice. As to conditions: female, CD-1, plasma, mouse; for AUC(0-inf): read-out: AUC (infinity); for clearance: read-out: CL/kg (converted); for half-life: read-out: Elimination t1/2 (converted); for Vd: read-out: Vd (area); for bioavailability: PO 10 mg kg^−1 vs IV 1 mg kg^−1, read-out: Bioavailability (F%). As to the method: PK parameters for the lead compounds were determined using three mice per data point (Supplementary Methods 6.1).
Blood samples were collected from terminal cardiac puncture at 0.08 (IV only), 0.25, 0.5, 1 (PO only), 2, 4, 8 and 24 hour time points. The whole blood was centrifuged to obtain plasma. Brains were also collected following cardiac perfusion from both sets of animals at 2 hours. Analysis of the biological samples was carried out by the company Selcia. Plasma proteins were precipitated by addition of PBS (1 volume) followed by 3 volumes of acetonitrile containing internal standard (verapamil). Following filtration through a protein precipitation plate the eluent was dried under nitrogen and re-suspended in mobile phase prior to analysis. Individual brains were homogenised in PBS and diluted to 10% w/v and divided into aliquots consisting of brain homogenate (1 volume, 0.3 ml) and 3 volumes (0.9 ml) of acetonitrile containing internal standard. Samples were centrifuged and supernatants removed and taken through a protein precipitation plate alongside an appropriate standard. Eluents were dried under nitrogen and re-suspended in mobile phase prior to analysis. Eluents were analysed by LC-MS/MS using a Phenomenex Gemini NX column (C18,30 x 2.1 mm, 3 micron). Analysis of the data was carried out using PK solutions software.

The subject of another series is HepG2 cells. The series is described as follows: HepG2 cytotoxicity assay. Type of series: cell-based, human. As to conditions: for Selectivity: EC50 HepG2 divided by EC50 T. b. brucei parasite killing; for EC50: Homo sapiens, HepG2, 72 h, CellTitreGlo. As to the method: as §1
To determine a cellular selectivity index, a HepG2 Cytotoxicity Assay was used. HepG2 cells (a human hepatocyte carcinoma cell line) were seeded into 96 well plates in EMEM media. Compounds were assessed for their effect upon cellular viability (6 point dose response curves). After 72h the numbers of viable cells were detected using Promega CellTitreGlo reagent to measure ATP using the luciferase/luciferin detection system. The selectivity index is calculated as the EC50 in the HepG2 assay divided by the EC50 determined in the T. b. brucei parasite killing assay.

A further series concerns the target T1, CYP2C9 (Homo sapiens, UniProt P11712).
T1 construct: purchased BD Biosciences
Nature of the series: Inhibition of CYP450 2C9. The class given is in vitro ADME. As to conditions: CYP450 isoform inhibition kit (BD Biosciences), probe MFC. As to the method:
as §1
The compounds were investigated for their inhibitory effect on cytochrome P450 (CYP450) activity using five CYP450 isoforms (with fluorescent substrates in brackets): 3A4 (two substrates, BFC and DBF), 2D6 (AMMC), 2C9 (MFC), 2C19 (CEC) and 1A2 (CEC). Kits from BD Biosciences were used along with the method described by the manufacturer. […] Fluorescence was measured using a SpectraMax M5 plate reader.

The mark [6] stands for this setting: 72 h, Alamar Blue, read-out: EC50 (µM) in vitro parasite killing of bloodstream form T. brucei Lister 427 (Tbb EC50).
[7] abbreviates: Glycerol 0.75 mM, read-out: EC50.
The mark [8] stands for this setting: 10 µM, equilibrium dialysis, read-out: Mouse plasma protein binding fu(%).

T1 sequence (P11712 whole entry): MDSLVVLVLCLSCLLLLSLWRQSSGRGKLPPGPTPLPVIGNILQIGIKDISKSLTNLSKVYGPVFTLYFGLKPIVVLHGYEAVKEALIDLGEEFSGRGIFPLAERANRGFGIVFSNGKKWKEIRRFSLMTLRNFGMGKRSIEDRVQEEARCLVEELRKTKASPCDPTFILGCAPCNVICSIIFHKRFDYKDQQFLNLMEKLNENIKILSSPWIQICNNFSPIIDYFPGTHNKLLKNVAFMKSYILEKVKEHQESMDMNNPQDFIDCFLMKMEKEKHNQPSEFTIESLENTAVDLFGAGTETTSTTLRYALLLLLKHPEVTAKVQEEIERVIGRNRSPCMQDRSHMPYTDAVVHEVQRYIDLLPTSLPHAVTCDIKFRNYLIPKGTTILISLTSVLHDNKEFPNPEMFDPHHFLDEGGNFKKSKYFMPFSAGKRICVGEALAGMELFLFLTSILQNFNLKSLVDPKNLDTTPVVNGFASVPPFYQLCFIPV

Regarding `CN(C)CCn1ccc2c(ccn2Cc2ccc(F)c(Br)c2)c1=O` [CTCB-508, 1-[(3-Bromo-4-fluorophenyl)methyl]-5-[2-(dimethylamino)ethyl] pyrrolo[3,2-c]pyridin-4-one], the EC50 in series [1] (setting [6]) came out at 0.3 ± 0.02 µM. Also, in series [1] (setting [7]), the EC50 was 0.31 µM. The 50% effective concentration (EC50) in series [1] (Glycerol 5.0 mM, read-out: EC50) was 0.44 µM. In addition, the concentration giving a half-maximal response (EC50) in series [1] (Glycerol […], read-out: EC50) turned out to be 0.34 µM. The fraction unbound at 4 h, 10 µM in series [2] (setting [8]) turned out to be 0.18. Besides, in series [3], the microsomal CLint at 5 µM was found to be 56 µL/min/mg. The fraction unbound in series [4] stood at 0.017. In series [5] (IV 1 mg kg^−1), the AUC(0-inf) is 349 ng·h/mL, the clearance was 45 mL/min/kg, the half-life is 0.7 h and the Vd is 2.9 L/kg. Also, in series [5] (PO 10 mg kg^−1), the concentration peaked (Cmax) at 1330 ng/mL, the Tmax is 2 h and the AUC(0-inf) was 4170 ng·h/mL. Moreover, in series [5], the bioavailability came out at 119%. In the series with HepG2 cells, this compound gave a Selectivity of 111 and an EC50 of 33400 nM. For the same compound, 10 µM produced 6.1% inhibition at CYP2C9.
With `CN(C)CCn1ccc2c(ccn2Cc2ccc(Cl)c(Br)c2)c1=O` [CTCB-470, 1-[(3-Bromo-4-chlorophenyl)methyl]-5-[2-(dimethylamino)ethyl] pyrrolo[3,2-c]pyridin-4-one], the concentration giving a half-maximal response (EC50) in series [1] (setting [6]) is 0.31 ± 0.03 µM; in series [1] (Glycerol 0 mM, read-out: EC50), 0.23 µM; in series [1] (setting [7]), 0.26 µM; in series [1] (Glycerol […], read-out: EC50), 0.26 µM; in the series with HepG2 cells, 12300 nM. Besides, the fraction unbound at 4 h, 10 µM was 0.06 in series [2] (setting [8]) and 0.058 in series [2] (percentage bound, read-out: mouse plasma protein binding value (converted)). Moreover, the microsomal CLint at 5 µM in series [3] was determined as 91 µL/min/mg. Besides, the fraction unbound in series [4] turned out to be 0.006. The AUC(0-inf) was 657 ng·h/mL in series [5] (IV 1 mg kg^−1) and 1560 ng·h/mL in series [5] (PO 10 mg kg^−1). Moreover, the clearance in series [5] (IV 1 mg kg^−1) is 25 mL/min/kg. Also, in series [5] (IV 1 mg kg^−1), the half-life was 3.1 h. In addition, in series [5] (IV 1 mg kg^−1), the Vd stood at 6.9 L/kg. The compound further had a peak concentration (Cmax) in series [5] (PO 10 mg kg^−1) of 393 ng/mL. The Tmax in series [5] (PO 10 mg kg^−1) stood at 0.5 h. Further, in series [5], the bioavailability came out at 24%. This compound also had a Selectivity in the series on HepG2 cells of 39. On CYP2C9, the inhibition at 10 µM is 28.5%.
In the case of `CNCCn1ccc2c(ccn2Cc2ccc(Cl)c(Cl)c2)c1=O` [CTCB-435], the EC50 in series [1] (72 h, read-out: EC50 (µM) in vitro parasite killing of bloodstream form T. brucei Lister 427 (Tbb EC50), 72 h, Alamar Blue) was found to be 0.25 ± 0.05 µM.
